Laboratory results as given in patent US20040038201A1, “Diagnostic and therapeutic applications for biomarkers of infection” (Whitehead Institute for Biomedical Research, priority 2002, published 2004).

Key:
[1] = tested on: human macrophages; assay: I-TAC ELISA of macrophage supernatants; format: cell-based; conditions: for I-TAC production by macrophages in response to IFNs: 100 units/mL IFN; for I-TAC production by macrophages in response to bacterial components: supernatants after 24 hours, LPS 1 μg/mL, MDP 100 μg/mL
[2] = tested on: human macrophages; assay: Differential (Gram-negative/TLR4-specific) macrophage gene expression after bacterial components or cytokines, HuFL GeneChips; format: cell-based; conditions: for induction of the TLR4-induced core cluster of genes by cytokines: IFNs at 1000 units/mL; for expression pattern of the 101 genes differentially regulated by Gram-negative versus Gram-positive bacteria: LPS 1 μg/mL, LTA 10 μg/mL, MDP 100 μg/mL, fMLP 100 nM
[3] = tested on: human macrophages; assay: IL-12 p40 ELISA of macrophage supernatants; format: cell-based; conditions: LPS 1 μg/mL, MDP 100 μg/mL
[4] = tested on: human macrophages; assay: IL-12 p70 ELISA of macrophage supernatants; format: cell-based; conditions: LPS 1 μg/mL, MDP 100 μg/mL
[5] = tested on: human macrophages; format: cell-based; conditions: 24-hour time course; LPS 1 μg/mL, LTA 10 μg/mL, MDP 100 μg/mL, hsps 10 μg/mL
[6] = target: T1, TLR-4 (Homo sapiens, UniProt O00206+Q9Y6Y9); assay: TLR-4 antagonist (RSLA) pretreatment, TNF-alpha ELISA of stimulated macrophages; format: cell-based; conditions: 1 μg/mL RSLA, 30 minutes pretreatment; 10 μg/mL hsp70
T1 construct: endogenous in cells; host or cells: human monocyte-derived macrophages (primary)
Description: FIG. 9 is a graphical representation showing a specific TLR-4 antagonist inhibits production of TNF-alpha by hsp70. Monocytes were plated at […] in 96-well Primaria plates and matured to macrophages as described. Cells were washed with Hank's Balanced Salt Solution incubated overnight in DMEM, 1% human serum, and pretreated for 30 minutes at 37° C. with 1 μg/mL Rhodobacter sphaeroides lipid A (RSLA). RSLA is a specific antagonist of TLR-4. Cells were then stimulated with 0.1 MOI E. coli sd-4, 1 μg/mL LPS, or 10 μg/mL hsp70 to duplicate, and culture media was collected at 0, 2, 6, and 12 hours. ELISAs were performed using manufacturer's protocols.

[7] = tested on: macrophages; format: cell-based, human
[8] = tested on: STAT1; assay: Phosphorylation of macrophage STAT1; format: cell-based, human
[9] = tested on: dendritic cells; assay: I-TAC production by dendritic cells (ELISA); conditions: 24 hours after exposure to LPS or lipoteichoic acid
[10] = tested on: mycobacterial infection; conditions: supplemental IL-12; cited from earlier work
[11] = tested on: M. abscessus infection, M. tuberculosis infection; conditions: exogenous IL-12 therapy; cited from earlier work

T1 sequence (O00206 24-839): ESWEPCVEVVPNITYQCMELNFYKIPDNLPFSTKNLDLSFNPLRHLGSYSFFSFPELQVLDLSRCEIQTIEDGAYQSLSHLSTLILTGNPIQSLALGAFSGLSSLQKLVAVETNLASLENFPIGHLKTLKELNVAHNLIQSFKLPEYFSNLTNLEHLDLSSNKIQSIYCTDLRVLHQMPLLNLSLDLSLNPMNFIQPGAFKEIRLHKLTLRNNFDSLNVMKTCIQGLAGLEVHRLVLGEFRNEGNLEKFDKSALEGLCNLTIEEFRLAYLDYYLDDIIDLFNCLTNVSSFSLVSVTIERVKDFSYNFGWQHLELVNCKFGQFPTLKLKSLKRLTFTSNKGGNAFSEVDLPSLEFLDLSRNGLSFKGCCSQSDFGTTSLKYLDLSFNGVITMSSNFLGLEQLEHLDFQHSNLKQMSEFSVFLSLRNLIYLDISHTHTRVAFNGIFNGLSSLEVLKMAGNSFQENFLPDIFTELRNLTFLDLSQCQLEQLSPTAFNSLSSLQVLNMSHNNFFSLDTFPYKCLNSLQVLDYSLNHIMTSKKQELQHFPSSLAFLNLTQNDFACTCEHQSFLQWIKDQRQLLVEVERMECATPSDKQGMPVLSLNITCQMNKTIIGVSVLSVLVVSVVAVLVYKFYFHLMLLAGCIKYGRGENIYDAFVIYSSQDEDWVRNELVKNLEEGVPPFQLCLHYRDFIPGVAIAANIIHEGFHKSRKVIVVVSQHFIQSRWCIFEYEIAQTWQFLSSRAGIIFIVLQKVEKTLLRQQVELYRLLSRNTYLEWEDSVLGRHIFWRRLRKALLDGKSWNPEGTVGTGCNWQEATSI
T1 sequence (Q9Y6Y9 17-160 limits assumed): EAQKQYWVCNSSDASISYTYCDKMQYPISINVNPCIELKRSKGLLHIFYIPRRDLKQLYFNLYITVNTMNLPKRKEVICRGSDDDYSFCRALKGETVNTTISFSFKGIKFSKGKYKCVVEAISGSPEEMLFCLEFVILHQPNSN

IFN-α
I-TAC production by macrophages in response to IFNs [1]: sufficient to induce I-TAC production
induction of the TLR4-induced core cluster of genes by cytokines [2]: sufficient to induce the expression of the TLR4-induced core cluster of genes

IFN-γ: IFN-γ from R&D Systems
I-TAC production by macrophages in response to IFNs [1]: sufficient to induce I-TAC production
induction of the TLR4-induced core cluster of genes by cytokines [2]: sufficient to induce the expression of the TLR4-induced core cluster of genes

formyl-methionine-leucine-phenylalanine [formyl-MetLeuPhe]
expression pattern of the 101 genes differentially regulated by Gram-negative versus Gram-positive bacteria [2]: failed to induce expression changes that were characteristic of either class of bacteria

CC(=O)N[C@H]1C(O)O[C@H](CO)[C@@H](O)[C@@H]1O[C@H](C)C(=O)N[C@@H](C)C(=O)N[C@H](CCC(=O)O)C(N)=O (mixture of isomers) [MDP, muramyl dipeptide]
IL-12 p40 secretion by macrophages [3]: elicited
I-TAC production by macrophages in response to bacterial components [1]: not
IL-12 p70 production by macrophages in response to bacterial components [4]: did not
induction of the macrophage activation program (gene expression changes) [5]: induced the majority of the activation program
induction of the cluster of nine genes specific to Gram-positive bacteria [2]: insufficient to induce this small cluster of genes
expression pattern of the 101 genes differentially regulated by Gram-negative versus Gram-positive bacteria [2]: induced gene expression changes similar to the Gram-positive organisms

lipoteichoic acid [LTA]
I-TAC production by macrophages in response to bacterial components [1]: not
induction of the macrophage activation program (gene expression changes) [5]: induced the majority of the activation program
induction of the cluster of nine genes specific to Gram-positive bacteria [2]: insufficient to induce this small cluster of genes
expression pattern of the 101 genes differentially regulated by Gram-negative versus Gram-positive bacteria [2]: induced gene expression changes similar to the Gram-positive organisms

Rhodobacter sphaeroides lipid A [RSLA]
production of TNF-alpha by hsp70-stimulated macrophages after antagonist pretreatment [6]: inhibits

hsp70: Recombinant mycobacterial heat shock protein from StressGen
induction of the macrophage activation program (gene expression changes) [5]: induced the majority of the activation program
cytokine elicited relative to the endotoxin-equivalent amount of LPS ([7]; 0.06 Eu/mL = 13 pg/mL LPS, 10 μg/mL hsp 70): 3-6 times

monophosphoryl lipid A
induction of the macrophage activation program (gene expression changes) [5]: failed to induce this set of gene expression changes

lipopolysaccharide [LPS]
IL-12 p40 secretion by macrophages [3]: elicited
maximum level of I-TAC secretion, macrophages ([1]; 24 hours after exposure to LPS or lipoteichoic acid): 2.8 ng/mL
I-TAC production by macrophages in response to bacterial components [1]: induced
phosphorylation of macrophage STAT1 [8]: observed
IL-12 p70 production by macrophages in response to bacterial components [4]: stimulated p70 production
maximum level of I-TAC secretion, dendritic cells [9]: 59 ng/mL
induction of the macrophage activation program (gene expression changes) [5]: induced the majority of the activation program
endotoxin levels that did not stimulate production of either cytokine (TNF-alpha, IL-12 p40) ([7]; LPS titration): lower than 1.4 Eu/mL
endotoxin required to elicit IL-12 p40 relative to TNF-alpha ([7]; LPS titration): Roughly 100 fold
gene expression changes compared with whole Gram-negative bacteria [2]: less robust in magnitude and duration
expression pattern of the 101 genes differentially regulated by Gram-negative versus Gram-positive bacteria [2]: recapitulated the expression pattern of the 101 genes

IL-12: cytokine incubated with macrophages; exogenous IL-12 therapy in cited studies
clearance of mycobacterial infection in normal mice [10]: enhances the ability of normal mice to clear a mycobacterial infection
clinical outcome in patients with infections refractory to antibiotics and supplemental IFN-γ [11]: rescued two patients
induction of the TLR4-induced core cluster of genes by cytokines [2]: failed to induce comparable gene expression changes

B1: IL-10: cytokine incubated with macrophages (protein, UniProt P22301 19-178, looked up)
Interleukin-10: SPGQGTQSENSCTHFPGNLPNMLRDLRDAFSRVKTFFQMKDQLDNLLLKESLLEDFKGYLGCQALSEMIQFYLEEVMPQAENQDPDIKAHVNSLGENLKTLRLRLRRCHRFLPCENKSKAVEQVKNAFNKLQEKGIYKAMSEFDIFINYIEAYMTMKIRN
induction of the TLR4-induced core cluster of genes by cytokines [2]: failed to induce comparable gene expression changes
